pEC50: −log10 of the molar value.

This assay deals with human APJ receptor (Homo sapiens (Human), UniProt P35414). As to the kind of experiment: [35S]GTPγS binding assay on membranes from CHO cells stably expressing human APJ receptor. Conditions: membranes of CHO cells stably expressing human APJ receptor, read-out: Activity hAPJ SPA EC50 IP. The format is biochemical. The method, boiled down: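 [35S]GTPγS binding measured on membranes from CHO cells stably expressing FLAG-tagged human APJ, with GDP, MgCl2 and NaCl levels optimized beforehand. Incubation 90 min at RT, imager read-out; EC50 from non-linear regression, averaged over several independent experiments.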
human APJ receptor, sequence (P35414 whole entry): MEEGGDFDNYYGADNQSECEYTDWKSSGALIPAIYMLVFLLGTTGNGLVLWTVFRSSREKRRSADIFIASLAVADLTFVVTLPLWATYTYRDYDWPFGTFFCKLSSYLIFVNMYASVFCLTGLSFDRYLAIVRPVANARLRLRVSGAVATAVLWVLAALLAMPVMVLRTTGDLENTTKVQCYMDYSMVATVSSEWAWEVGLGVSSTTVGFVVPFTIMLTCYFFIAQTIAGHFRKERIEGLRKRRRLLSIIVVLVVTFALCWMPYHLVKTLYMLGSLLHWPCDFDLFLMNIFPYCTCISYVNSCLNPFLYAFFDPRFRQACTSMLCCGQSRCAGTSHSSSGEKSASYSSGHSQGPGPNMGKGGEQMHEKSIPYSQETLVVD
Background: Binding of GTPγS marks nucleotide exchange on a G protein.
As a reminder, the pEC50 is the negative decadic logarithm of the EC50, by convention in mol/L. As to `COc1cccc(-c2nnc(NS(=O)(=O)[C@@H](C)[C@H](C)c3ncc(Cl)cn3)n2[C@@H](C)c2nc(C)no2)n1` (single isomer, unassigned) [Example 246.0, (2S,3R)-3-(5-chloro-2-pyrimidinyl)-N-(5-(6-methoxy-2-pyridinyl)-4-((1R)-1-(5-methyl-1,2,4-oxadiazol-3-yl)ethyl)-4H-1,2,4-triazol-3-yl)-2-butanesulfonamide or (2S,3R)-3-(5-chloro-2-pyrimidinyl)-N-(5-(6-methoxy-2-pyridinyl)-4-((1S)-1-(5-methyl-1,2,4-oxadiazol-3-yl)ethyl)-4H-1,2,4-triazol-3-yl)-2-butanesulfonamide], the pEC50 was 8.47.

For the compound `CO[C@H](c1ncc(Cl)cn1)[C@H](C)S(=O)(=O)Nc1nnc(-c2ccccn2)n1C1(C2CC2)CC1` [Example 108.0], the pEC50 was 8.23.

On to `COc1cccc(-c2nnc(NS(=O)(=O)[C@@H](C)[C@@H](OC(C)C)c3ncc(C)cn3)n2[C@@H](C)c2ccno2)n1` (single isomer, unassigned) [Example 217.0, (1S,2S)-N-(5-(6-methoxy-2-pyridinyl)-4-((1R)-1-(1,2-oxazol-5-yl)ethyl)-4H-1,2,4-triazol-3-yl)-1-(5-methyl-2-pyrimidinyl)-1-(2-propanyloxy)-2-propanesulfonamide or (1S,2S)-N-(5-(6-methoxy-2-pyridinyl)-4-((1S)-1-(1,2-oxazol-5-yl)ethyl)-4H-1,2,4-triazol-3-yl)-1-(5-methyl-2-pyrimidinyl)-1-(2-propanyloxy)-2-propanesulfonamide], for which the pEC50 was 8.28.

With `COCC(COC)n1c(NS(=O)(=O)[C@@H](C)[C@H](C)c2ncc(C)cn2)nnc1-c1cccc(OC)n1` [Example 98.0], the pEC50 was 8.21.

On to `COCC(COC)n1c(NS(=O)(=O)[C@@H](C)[C@H](OC)c2ncc(Cl)cn2)nnc1-c1cccnc1` [Example 16.0], for which the pEC50 was 7.36.

Take `COc1cccc(-c2nnc(NS(=O)(=O)[C@@H](C)[C@H](C)c3ncc(Cl)cn3)n2[C@H](C)c2cnn(C)c2)n1` (racemic) [Example 298.0, (2S,3R)-3-(5-chloropyrimidin-2-yl)-N-(5-(6-methoxypyridin-2-yl)-4-((R)-1-(1-methyl-1H-pyrazol-4-yl)ethyl)-4H-1,2,4-triazol-3-yl)butane-2-sulfonamide or (2S,3R)-3-(5-chloropyrimidin-2-yl)-N-(5-(6-methoxypyridin-2-yl)-4-((S)-1-(1-methyl-1H-pyrazol-4-yl)ethyl)-4H-1,2,4-triazol-3-yl)butane-2-sulfonamide]: the pEC50 is 8.82.

With `COc1cc(Cn2c(NS(=O)(=O)[C@@H](C)[C@H](OC)c3ncc(Cl)cn3)nnc2-c2cccc(OC)n2)on1` [Example 197.0, (1R,2S)-1-(5-chloro-2-pyrimidinyl)-1-methoxy-N-(4-((3-methoxy-1,2-oxazol-5-yl)methyl)-5-(6-methoxy-2-pyridinyl)-4H-1,2,4-triazol-3-yl)-2-propanesulfonamide], the negative logarithm of the EC50 (pEC50) was 7.92.

As for `COc1cccc(-c2nnc(NS(=O)(=O)[C@@H](C)[C@H](OC)c3ncc(Cl)cn3)n2C[C@@H]2CCCOC2)n1` (racemic) [Example 312.0, (1R,2S)-1-(5-chloropyrimidin-2-yl)-1-methoxy-N-(5-(6-methoxypyridin-2-yl)-4-(((R)-tetrahydro-2H-pyran-3-yl)methyl)-4H-1,2,4-triazol-3-yl)propane-2-sulfonamide or (1R,2S)-1-(5-chloropyrimidin-2-yl)-1-methoxy-N-(5-(6-methoxypyridin-2-yl)-4-(((S)-tetrahydro-2H-pyran-3-yl)methyl)-4H-1,2,4-triazol-3-yl)propane-2-sulfonamide], the pEC50 was 7.89.

Take `COc1cccc(-c2nnc(NS(=O)(=O)[C@@H](C)[C@H](C)c3ncc(Cl)cn3)n2Cc2ccon2)n1` [Example 260.0, (2S,3R)-3-(5-chloropyrimidin-2-yl)-N-(4-(isoxazol-3-ylmethyl)-5-(6-methoxypyridin-2-yl)-4H-1,2,4-triazol-3-yl)butane-2-sulfonamide]: the pEC50 is 8.29.
